Experimental data taken from ChEMBL document CHEMBL1201862, “PubChem BioAssay data set” (2004).
pIC50: −log10 of the molar value. Calls of active or inactive are those of the source.

Columns and labels:
[1] = molecular target: G-protein coupled receptor 55 (Homo sapiens, UniProt Q9Y2T6); test: GPR55 antagonists blocking LPI-driven arrestin recruitment, primary screen, imaging, U2OS, beta-arrestin-GFP, LPI agonist (AID 2013); assay type: functional;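 note: antagonist potency measured as reduced agonist-driven arrestin aggregation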
Chain of G-protein coupled receptor 55 (Q9Y2T6 whole entry): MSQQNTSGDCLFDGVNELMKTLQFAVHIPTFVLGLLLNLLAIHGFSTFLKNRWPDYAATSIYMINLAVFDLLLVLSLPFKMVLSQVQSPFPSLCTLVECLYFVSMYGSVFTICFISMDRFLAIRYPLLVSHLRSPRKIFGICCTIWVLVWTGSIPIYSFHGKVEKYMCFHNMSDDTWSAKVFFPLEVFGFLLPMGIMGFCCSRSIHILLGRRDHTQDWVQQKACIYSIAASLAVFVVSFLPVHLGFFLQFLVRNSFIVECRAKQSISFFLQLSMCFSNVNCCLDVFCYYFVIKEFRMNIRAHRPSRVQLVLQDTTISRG

[2] = molecular target: Glyceraldehyde-3-phosphate dehydrogenase (Homo sapiens, UniProt P04406)
Chain of Glyceraldehyde-3-phosphate dehydrogenase (P04406 whole entry): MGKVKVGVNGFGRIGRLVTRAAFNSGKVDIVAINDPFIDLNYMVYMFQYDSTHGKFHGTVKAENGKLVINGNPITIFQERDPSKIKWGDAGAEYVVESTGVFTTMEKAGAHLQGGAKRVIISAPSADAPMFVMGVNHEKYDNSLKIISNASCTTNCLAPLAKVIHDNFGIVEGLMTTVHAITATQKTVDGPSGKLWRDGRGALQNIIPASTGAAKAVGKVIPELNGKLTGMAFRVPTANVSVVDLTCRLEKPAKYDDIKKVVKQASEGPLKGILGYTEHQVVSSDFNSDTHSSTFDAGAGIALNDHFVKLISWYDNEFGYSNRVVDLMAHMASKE

[3] = molecular target: T1, Alkaline phosphatase, tissue-nonspecific isozyme (Homo sapiens, UniProt P05186); test: human TNAP enzyme inhibitors, SAR follow-up, biochemical, luminescent, dose response (AID 1056)
T1 sequence (P05186 whole entry): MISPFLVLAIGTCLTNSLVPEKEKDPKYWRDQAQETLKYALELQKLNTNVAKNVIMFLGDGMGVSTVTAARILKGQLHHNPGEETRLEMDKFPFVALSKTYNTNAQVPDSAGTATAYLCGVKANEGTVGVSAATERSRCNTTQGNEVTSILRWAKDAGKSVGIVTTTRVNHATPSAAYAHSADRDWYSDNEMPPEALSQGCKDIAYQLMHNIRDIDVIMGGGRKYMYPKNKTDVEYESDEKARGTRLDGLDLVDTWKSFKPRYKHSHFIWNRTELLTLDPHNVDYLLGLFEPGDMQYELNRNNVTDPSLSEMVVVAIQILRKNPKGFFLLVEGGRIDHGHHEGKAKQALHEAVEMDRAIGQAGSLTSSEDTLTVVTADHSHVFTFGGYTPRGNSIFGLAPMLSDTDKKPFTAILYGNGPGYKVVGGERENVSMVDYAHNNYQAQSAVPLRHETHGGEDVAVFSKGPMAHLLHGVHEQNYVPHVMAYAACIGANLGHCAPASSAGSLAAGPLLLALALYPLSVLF

[4] = cytotoxicity toward NIH3T3 fibroblasts, dose response, counter-screen, cell-based, ATP luminescence, mouse fibroblasts (AID 2010); assay type: functional;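 note: cells exposed to compound for about 90 hours before reading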
[5] = inhibitors of intracellular T. cruzi replication, confirmation, NIH3T3 host cells, beta-gal luminescence (AID 2044); assay type: functional, cell-based;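 note: intracellular parasites grown in NIH/3T3 mouse fibroblasts as host cells; luminescent beta-galactosidase reporter signal from transgenic T. cruzi replicating inside host cells; inhibitors lower the luminescence signal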
[6] = molecular target: Glucose-6-phosphate 1-dehydrogenase (Homo sapiens, UniProt P11413); test: human G6PD enzyme inhibitors, dose response, selectivity assay for P. falciparum G6PD inhibitor project, biochemical, fluorescence (AID 504792); assay type: functional
Chain of Glucose-6-phosphate 1-dehydrogenase (P11413 whole entry): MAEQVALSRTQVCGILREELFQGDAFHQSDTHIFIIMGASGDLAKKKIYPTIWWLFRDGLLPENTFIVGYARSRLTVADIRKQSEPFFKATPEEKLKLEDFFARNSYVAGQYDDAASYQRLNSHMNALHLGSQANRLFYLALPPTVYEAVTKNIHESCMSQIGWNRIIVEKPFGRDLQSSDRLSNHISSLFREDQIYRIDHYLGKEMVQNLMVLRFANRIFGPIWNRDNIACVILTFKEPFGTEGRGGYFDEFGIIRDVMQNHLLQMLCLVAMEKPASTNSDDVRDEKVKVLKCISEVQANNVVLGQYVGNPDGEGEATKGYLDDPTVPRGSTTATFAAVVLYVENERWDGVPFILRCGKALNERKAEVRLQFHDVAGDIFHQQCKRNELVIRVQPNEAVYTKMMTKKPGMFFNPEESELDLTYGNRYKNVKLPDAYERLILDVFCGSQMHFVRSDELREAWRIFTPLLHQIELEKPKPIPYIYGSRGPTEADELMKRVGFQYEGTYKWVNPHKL

[7] = molecular target: Cytochrome P450 2C19 (Homo sapiens, UniProt P33261); test: Cytochrome panel assay with activity outcomes. Panel member name: p450-cyp2c19 Compounds with AC50 equal or less than 10 uM are considered active; assay type: functional; conditions: read-out: AC50
[8] = molecular target: T2, Delta-type opioid receptor (Homo sapiens, UniProt P41143); test: HTS Image-Based Screen for Antagonists of the DOR Receptor. [Related pubchem assays (depositor defined):AID1777, AID1785, AID1786, AID2133]; assay type: functional
T2 sequence (P41143 whole entry): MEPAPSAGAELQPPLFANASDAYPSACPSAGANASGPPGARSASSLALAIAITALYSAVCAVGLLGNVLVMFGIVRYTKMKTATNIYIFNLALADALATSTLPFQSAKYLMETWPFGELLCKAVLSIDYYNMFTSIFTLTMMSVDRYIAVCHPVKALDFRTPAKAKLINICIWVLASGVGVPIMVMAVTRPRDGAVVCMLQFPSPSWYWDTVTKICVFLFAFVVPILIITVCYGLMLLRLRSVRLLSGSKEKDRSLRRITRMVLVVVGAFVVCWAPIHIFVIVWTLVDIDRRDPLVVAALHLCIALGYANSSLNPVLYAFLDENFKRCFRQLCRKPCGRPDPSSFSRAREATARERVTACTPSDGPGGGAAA

[9] = molecular target: Beta-galactosidase (Escherichia coli, UniProt Q8VNN2); assay type: functional
Chain of Beta-galactosidase (Q8VNN2 whole entry): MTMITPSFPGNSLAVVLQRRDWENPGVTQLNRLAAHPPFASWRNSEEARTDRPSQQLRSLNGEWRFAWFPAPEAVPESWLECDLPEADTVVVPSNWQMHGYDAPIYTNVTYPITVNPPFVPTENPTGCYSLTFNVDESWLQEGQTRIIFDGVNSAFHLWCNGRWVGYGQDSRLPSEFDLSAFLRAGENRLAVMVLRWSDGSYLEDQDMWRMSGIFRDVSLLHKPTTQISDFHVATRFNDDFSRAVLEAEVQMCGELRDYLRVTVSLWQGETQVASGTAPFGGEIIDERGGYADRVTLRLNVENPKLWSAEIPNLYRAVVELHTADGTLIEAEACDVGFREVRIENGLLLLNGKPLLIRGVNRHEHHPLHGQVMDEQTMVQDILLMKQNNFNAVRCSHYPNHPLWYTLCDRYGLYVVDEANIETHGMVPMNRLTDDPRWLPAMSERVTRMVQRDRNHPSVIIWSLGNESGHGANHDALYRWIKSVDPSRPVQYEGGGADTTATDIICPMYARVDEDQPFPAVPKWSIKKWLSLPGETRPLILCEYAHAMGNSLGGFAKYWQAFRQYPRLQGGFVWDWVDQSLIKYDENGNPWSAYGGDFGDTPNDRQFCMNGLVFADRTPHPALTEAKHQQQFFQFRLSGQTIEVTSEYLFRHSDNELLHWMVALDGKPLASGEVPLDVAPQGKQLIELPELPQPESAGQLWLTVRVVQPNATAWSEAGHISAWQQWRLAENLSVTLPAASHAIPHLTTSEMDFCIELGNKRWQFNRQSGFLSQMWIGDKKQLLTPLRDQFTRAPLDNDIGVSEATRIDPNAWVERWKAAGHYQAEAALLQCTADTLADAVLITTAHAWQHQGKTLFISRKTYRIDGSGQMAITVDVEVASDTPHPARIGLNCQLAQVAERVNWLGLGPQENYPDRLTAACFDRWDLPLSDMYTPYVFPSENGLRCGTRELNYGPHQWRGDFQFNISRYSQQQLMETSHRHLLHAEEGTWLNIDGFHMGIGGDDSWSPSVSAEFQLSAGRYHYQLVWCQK

[10] = molecular target: Mu-type opioid receptor (Homo sapiens, UniProt P35372); test: HTS Image-Based Screen for Agonists of the MOR Receptor. [Related pubchem assays (depositor defined):AID1777, AID1785, AID1786, AID2133]; assay type: functional;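 note: imaging of beta-arrestin GFP recruitment into spots after receptor activation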
Chain of Mu-type opioid receptor (P35372 whole entry): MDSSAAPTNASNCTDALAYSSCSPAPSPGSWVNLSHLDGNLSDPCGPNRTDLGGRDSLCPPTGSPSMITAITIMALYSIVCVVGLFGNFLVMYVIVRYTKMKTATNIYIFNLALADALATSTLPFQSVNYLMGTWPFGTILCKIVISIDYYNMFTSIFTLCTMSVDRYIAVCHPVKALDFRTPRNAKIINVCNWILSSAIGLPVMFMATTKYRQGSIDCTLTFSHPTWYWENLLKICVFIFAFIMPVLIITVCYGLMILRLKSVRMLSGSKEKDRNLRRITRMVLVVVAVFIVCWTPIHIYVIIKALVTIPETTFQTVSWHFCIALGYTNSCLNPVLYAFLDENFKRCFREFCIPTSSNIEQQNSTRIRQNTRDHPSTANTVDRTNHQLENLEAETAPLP

[11] = molecular target: T2, Delta-type opioid receptor; test: HTS Image-Based Screen for Agonists of the DOR Receptor. [Related pubchem assays (depositor defined):AID1777, AID1786, AID2133]; assay type: functional
[12] = molecular target: T3, Kappa-type opioid receptor (Homo sapiens, UniProt P41145); assay type: functional
T3 sequence (P41145 whole entry): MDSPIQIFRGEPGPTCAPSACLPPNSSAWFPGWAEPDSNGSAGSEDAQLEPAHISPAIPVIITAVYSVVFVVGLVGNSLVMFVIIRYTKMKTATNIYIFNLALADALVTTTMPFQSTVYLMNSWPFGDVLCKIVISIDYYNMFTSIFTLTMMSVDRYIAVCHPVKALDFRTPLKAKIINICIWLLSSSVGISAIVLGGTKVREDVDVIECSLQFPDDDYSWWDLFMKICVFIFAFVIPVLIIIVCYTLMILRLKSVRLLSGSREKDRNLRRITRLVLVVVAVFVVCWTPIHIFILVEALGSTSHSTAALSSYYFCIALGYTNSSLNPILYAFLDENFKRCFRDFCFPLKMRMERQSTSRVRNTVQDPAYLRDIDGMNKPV

[13] = molecular target: T3, Kappa-type opioid receptor; assay type: functional; remark: listed apart in the source
[14] = molecular target: T4, Short transient receptor potential channel 4 (Mus musculus, UniProt Q9QUQ5); test: mouse TRPC4 channel inhibitors, dose response, cell-based, HEK293 TRPC4/mu-opioid, Fluo-4 calcium (AID 434942); assay type: functional;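 note: potency of inhibitors blocking the TRPC4 calcium response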
T4 sequence (Q9QUQ5 whole entry): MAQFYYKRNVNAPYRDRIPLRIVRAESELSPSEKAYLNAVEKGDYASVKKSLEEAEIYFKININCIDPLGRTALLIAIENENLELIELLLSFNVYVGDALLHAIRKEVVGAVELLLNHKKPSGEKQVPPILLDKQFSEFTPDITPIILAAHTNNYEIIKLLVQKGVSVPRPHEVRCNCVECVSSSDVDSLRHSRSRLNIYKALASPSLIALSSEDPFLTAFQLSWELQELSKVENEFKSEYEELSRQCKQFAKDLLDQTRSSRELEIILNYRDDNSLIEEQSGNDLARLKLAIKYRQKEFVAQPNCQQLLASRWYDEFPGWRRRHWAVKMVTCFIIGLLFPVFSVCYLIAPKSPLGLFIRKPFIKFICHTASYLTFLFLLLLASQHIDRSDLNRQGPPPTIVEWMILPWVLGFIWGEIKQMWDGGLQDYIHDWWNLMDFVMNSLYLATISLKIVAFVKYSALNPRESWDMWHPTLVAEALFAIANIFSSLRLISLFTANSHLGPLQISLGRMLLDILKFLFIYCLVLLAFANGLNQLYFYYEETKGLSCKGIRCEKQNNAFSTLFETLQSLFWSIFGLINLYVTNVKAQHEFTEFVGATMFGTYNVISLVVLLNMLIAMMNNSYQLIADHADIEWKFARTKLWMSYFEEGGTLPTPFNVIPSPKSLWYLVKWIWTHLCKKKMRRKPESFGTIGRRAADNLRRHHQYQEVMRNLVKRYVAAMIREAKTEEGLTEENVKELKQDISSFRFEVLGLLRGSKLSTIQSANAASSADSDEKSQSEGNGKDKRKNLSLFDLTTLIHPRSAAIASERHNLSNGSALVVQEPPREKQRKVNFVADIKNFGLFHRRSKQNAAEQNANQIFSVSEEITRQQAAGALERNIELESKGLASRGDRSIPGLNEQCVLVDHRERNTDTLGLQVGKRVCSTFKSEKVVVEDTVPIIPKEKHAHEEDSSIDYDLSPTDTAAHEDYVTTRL

[15] = molecular target: Heat shock protein HSP 90-alpha (Homo sapiens, UniProt P07900); assay type: functional, organism-based
[16] = molecular target: T5, SUMO-activating enzyme (Homo sapiens, UniProt Q9UBT2); test: inhibitors of in vitro SUMOylation cascade, primary screen, biochemical, HTRF, uHTS (AID 2006); assay type: protein-complex assay
T5 sequence (Q9UBE0 whole entry): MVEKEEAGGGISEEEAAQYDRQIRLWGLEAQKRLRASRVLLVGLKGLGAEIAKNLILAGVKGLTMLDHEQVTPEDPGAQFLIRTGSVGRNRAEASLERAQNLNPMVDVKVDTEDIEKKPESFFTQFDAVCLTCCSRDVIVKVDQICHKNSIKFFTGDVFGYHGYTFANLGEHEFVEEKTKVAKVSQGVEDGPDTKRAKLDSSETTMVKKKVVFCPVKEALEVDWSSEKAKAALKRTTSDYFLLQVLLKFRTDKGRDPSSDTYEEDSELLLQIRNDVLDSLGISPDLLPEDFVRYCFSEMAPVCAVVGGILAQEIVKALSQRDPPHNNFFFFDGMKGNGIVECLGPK
T5 sequence (Q9UBT2 whole entry): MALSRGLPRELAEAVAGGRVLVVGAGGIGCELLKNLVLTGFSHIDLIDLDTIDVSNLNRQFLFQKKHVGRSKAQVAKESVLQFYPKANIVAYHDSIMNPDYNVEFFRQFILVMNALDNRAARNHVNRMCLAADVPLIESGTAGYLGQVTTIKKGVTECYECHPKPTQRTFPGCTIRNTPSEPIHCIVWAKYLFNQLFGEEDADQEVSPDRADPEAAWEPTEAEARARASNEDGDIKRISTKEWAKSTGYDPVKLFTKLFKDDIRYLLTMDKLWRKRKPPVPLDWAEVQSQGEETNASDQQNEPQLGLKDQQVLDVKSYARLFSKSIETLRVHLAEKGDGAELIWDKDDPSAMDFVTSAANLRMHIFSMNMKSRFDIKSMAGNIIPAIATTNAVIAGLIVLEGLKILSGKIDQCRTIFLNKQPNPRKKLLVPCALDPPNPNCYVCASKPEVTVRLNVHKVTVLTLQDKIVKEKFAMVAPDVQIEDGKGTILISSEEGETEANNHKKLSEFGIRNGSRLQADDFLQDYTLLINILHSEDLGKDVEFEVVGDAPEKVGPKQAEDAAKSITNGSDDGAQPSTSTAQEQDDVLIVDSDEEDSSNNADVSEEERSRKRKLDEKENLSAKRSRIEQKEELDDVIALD

[17] = molecular target: T5, SUMO-activating enzyme; test: SUMOylation inhibitor hit validation, confirmation, SUMOylation inhibitor project, biochemical, AlphaScreen (AID 2018); assay type: functional
[18] = molecular target: T4, Short transient receptor potential channel 4; test: mouse TRPC4 channel activators, dose response, cell-based, HEK293 TRPC4/mu-opioid, Fluo-4 calcium (AID 434937); assay type: functional
[19] = molecular target: T6, CAAX prenyl protease 2 (Saccharomyces cerevisiae S288c, UniProt Q03530); assay type: biochemical
T6 sequence (Q03530 whole entry): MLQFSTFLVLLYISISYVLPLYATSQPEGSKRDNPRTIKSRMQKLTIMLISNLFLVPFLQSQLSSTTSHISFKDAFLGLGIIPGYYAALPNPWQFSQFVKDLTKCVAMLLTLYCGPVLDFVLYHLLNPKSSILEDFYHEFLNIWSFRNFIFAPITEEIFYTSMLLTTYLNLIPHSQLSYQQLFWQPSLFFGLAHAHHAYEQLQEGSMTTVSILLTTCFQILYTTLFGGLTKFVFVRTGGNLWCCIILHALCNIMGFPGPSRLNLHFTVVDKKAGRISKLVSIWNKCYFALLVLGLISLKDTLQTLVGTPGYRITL

[20] = Shn3 3'UTR reporter inhibitors, dose response, cell-based, Clone20 osteoblasts, firefly luciferase, cherry-picked (AID 624132); assay type: functional;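 note: firefly luciferase luminescence from reporter carrying the Shn3 3'UTR in osteoblasts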
[21] = molecular target: T7, RNA-binding protein pos-1 (Caenorhabditis elegans, UniProt G5EF15); test: inhibitors of POS-1/mex-3 RNA binding, dose response, biochemical, fluorescence polarization (AID 1964);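 note: purified POS-1 fused to maltose binding protein made in E. coli; potency of compounds blocking POS-1 binding to fluorescent RNA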
T7 sequence (G5EF15 whole entry): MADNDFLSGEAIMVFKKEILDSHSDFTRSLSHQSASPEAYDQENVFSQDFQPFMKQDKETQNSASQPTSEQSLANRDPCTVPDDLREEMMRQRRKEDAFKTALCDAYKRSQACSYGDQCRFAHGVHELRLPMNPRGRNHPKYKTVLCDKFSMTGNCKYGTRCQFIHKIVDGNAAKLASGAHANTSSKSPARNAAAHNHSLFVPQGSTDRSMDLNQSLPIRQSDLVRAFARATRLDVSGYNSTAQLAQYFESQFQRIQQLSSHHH

[22] = molecular target: Luciferin 4-monooxygenase (Photinus pyralis, UniProt P08659); test: firefly luciferase enzyme inhibitors, dose response, biochemical, luminescence (AID 1891)
Chain of Luciferin 4-monooxygenase (P08659 whole entry): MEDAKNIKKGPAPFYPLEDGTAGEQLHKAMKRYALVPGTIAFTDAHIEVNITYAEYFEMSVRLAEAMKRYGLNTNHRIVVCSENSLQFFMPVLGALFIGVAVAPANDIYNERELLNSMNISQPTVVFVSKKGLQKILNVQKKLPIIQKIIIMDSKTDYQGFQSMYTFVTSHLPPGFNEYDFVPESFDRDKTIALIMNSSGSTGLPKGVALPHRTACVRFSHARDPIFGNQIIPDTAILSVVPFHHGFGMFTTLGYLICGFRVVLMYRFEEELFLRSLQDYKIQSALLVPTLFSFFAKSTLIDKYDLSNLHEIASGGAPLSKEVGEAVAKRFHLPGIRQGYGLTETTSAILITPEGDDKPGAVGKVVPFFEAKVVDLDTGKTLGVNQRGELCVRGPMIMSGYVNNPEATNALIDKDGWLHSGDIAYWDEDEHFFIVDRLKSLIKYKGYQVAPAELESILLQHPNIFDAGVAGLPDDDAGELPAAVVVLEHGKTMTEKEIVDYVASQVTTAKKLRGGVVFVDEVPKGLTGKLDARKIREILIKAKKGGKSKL

[23] = Luminescence Cell-Based Dose Confirmation HTS to Identify Inhibitors of Platelet Dense Granule Release. [Related pubchem assays: 1663 (Primary HTS), 1678 (Summary of Project)]; assay type: functional
[24] = HepG2 cell cytotoxicity, dose response, cytotoxicity control for Shn3 inhibitor project, CellTiter-Glo, cherry-picked (AID 624134); assay type: functional, cell-based
[25] = A Cell Based Secondary Assay To Explore Cytotoxicity of Compounds that Sensitize Mycobacterium Tuberculosis to Beta-Lactam Antibiotics.; assay type: functional
[26] = molecular target: T8, Zinc finger protein mex-5 (Caenorhabditis elegans, UniProt Q9XUB2); test: MEX-5/TCR-2 RNA interaction inhibitors, dose response, biochemical, C. elegans, fluorescence polarization (AID 1960)
T8 sequence (Q9XUB2 whole entry): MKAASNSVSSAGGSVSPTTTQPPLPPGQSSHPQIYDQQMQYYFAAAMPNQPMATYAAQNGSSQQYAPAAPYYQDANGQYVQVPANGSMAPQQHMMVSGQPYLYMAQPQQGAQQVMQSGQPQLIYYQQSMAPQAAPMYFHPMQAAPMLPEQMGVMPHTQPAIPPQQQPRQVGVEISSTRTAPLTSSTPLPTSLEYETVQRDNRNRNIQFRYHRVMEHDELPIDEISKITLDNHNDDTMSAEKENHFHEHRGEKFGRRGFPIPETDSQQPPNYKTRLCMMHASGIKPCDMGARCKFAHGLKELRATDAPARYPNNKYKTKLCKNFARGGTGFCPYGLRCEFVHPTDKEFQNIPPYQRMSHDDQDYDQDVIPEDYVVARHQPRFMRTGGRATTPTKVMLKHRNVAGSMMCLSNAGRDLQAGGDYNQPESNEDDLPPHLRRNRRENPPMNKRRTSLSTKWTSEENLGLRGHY

With `CC(C)(C)n1nnnc1C(c1cccs1)N(Cc1ccccc1)Cc1cccnc1` (stereo unspecified) the IC50 [1] was 7.73 µM (active).

For `CC(C)(C)C(=O)COC(=O)c1cc(-c2ccc(Br)cc2)n[nH]1`, the IC50 [2] was > 100 µM (not active) and the IC50 [3] was > 100 µM (inactive).

With `O=C(CC12CC3CC(CC(C3)C1)C2)NC(=S)NCc1ccco1` the EC50 [4] was > 60 µM (inconclusive), the EC50 [5] was 2.29 µM (active) and the IC50 [1] was 0.969 µM (active).

For `CC(C)c1nnc(NC(=O)c2sc3ccccc3c2Cl)s1`, the IC50 [6] was 67.9 µM (inactive) and the AC50 [7] was 22.4 µM (inconclusive).

In the case of `CCCCN(CCCNC(=O)C1CCN(S(=O)(=O)N2CCOCC2)CC1)c1ccccc1`, the IC50 [8] was > 32 µM (inactive), the EC50 [9] was > 31.5 µM (inactive) and the EC50 [10] was > 32 µM (inactive). For the same molecule, the EC50 [11] was > 32 µM (inactive), the pIC50 [12] was 5.34 and the IC50 [13] was 25.3 µM (inactive).

In the case of `CC1CCN(CCOCCOc2ccccc2-c2ccccc2)CC1`, the EC50 [14] was 2.99 µM (active).

With `Cc1ccc(S(=O)(=O)N2CCN(c3nc(C)c4c(c3C#N)CC(C)(C)OC4)CC2)cc1` the IC50 [1] was 10.9 µM (inactive).

For `CCC1=NN2C(=N)/C(=C\c3cccn3-c3ccc(C)cc3C)C(=O)N=C2S1`, the AC50 [15] was 8.16 µM (active).

In the case of `Fc1ccccc1CNCCC(Cc1ccccc1)c1ccc2c(c1)OCO2` (stereo unspecified), the EC50 [14] was 13.3 µM (active).

In the case of `Cn1c(CNc2ccc(Cl)cc2)nnc1SCc1ccccc1`, the AC50 [15] was 4.08 µM (active).

In the case of `Cc1ccc(NC(=O)COc2ccc(/C=C3/NC(=O)NC3=O)cc2)cc1`, the IC50 [16] was 17.1 µM (active) and the IC50 [17] was 19.2 µM (active).

In the case of `COc1ccc(C(CNC(=O)c2cccc3cccnc23)N(C)C)cc1` (stereo unspecified), the EC50 [18] was 1.19 µM (active) and the EC50 [14] was 0.531 µM (active).

With `COCCNc1c2c(nc3ccccc13)CCC2` the EC50 [14] was 5.96 µM (active).

With `Cc1cc(OCC(=O)Nc2ccc(S(=O)(=O)N3CCN(C)CC3)cc2)cc(C)c1Cl` the IC50 [8] was > 32 µM (inactive), the EC50 [9] was > 31.5 µM (inactive) and the EC50 [10] was > 32 µM (inactive). For the same molecule, the EC50 [11] was > 32 µM (inactive), the pIC50 [12] was under 4.49 and the IC50 [13] was 7.36 µM (active).

In the case of `O=C1c2ccccc2C(=O)N1c1nnc[nH]1`, the IC50 [2] was > 100 µM (not active) and the IC50 [3] was > 100 µM (inactive).

For `CCN1CCN(c2ncnc3sc(C)c(-c4ccccc4)c23)CC1`, the EC50 [18] was 5.96 µM (active).

In the case of `CS(=O)(=O)c1ccc(C(=O)OCC(=O)N(CCc2ccccc2)Cc2ccccc2)cc1`, the AC50 [19] was 7.85 µM (active).

For `CN(C)c1ccc(/C=C/c2nc3ccccc3s2)cc1`, the AC50 [20] was 494 nM (active), the EC50 [21] was > 300 µM (not active) and the EC50 [22] was 1.43 µM (active). For the same molecule, the EC50 [23] was 4.65 µM (active), the AC50 [24] was 25.6 µM (active) and the CC50 [25] was 25.3 µM (active). The EC50 [26] was > 300 µM (not active).
